A short description of data set [1]: Pharmacokinetics of 50 mg capsules with or without SLS in beagle dogs. To be noted: 50 mg capsule with vs without 5 wt % SLS. The data set is classed as in vivo.
In data set [2] the test system is biopsy-confirmed DIO-NASH mice. Briefly: DIO-GAN NASH mice: liver histology (NAS, fibrosis, IHC). The data set is classed as in vivo, C57BL/6JRj mice. The source says:
(§1) C57BL/6JRj male mice (n=138) were fed the Gubra Amylin NASH (GAN) diet (40% fat, 22% fructose, 2% cholesterol [D09100310, Research Diets]) or lean chow diet for 35 weeks before treatment start. Prior to treatment all animals underwent liver biopsy for histological confirmation (steatosis score ≥2 and fibrosis stage ≥1) and stratification using the nonalcoholic fatty liver disease (NAFLD) activity scoring (NAS) and fibrosis staging system. The diet-induced obese mice on GAN diet (DIO-GAN) were randomized to 8 treatment groups (Table 16) based on percent-area of picrosirius red (PSR) staining. […] Vehicle-dosed lean chow-fed controls served as healthy controls (n=10). Mice were maintained on their respective diets (GAN or lean chow) for the duration of the study. Within-subject comparisons (pre-vs. post-treatment) were performed for liver biopsy histopathological scores. Terminal quantitative endpoints included plasma/liver biochemistry, liver histomorphometry, and liver transcriptomic analysis by RNAseq.
Formalin-fixed paraffin-embedded (FFPE) liver biopsies were prepared by placing liver samples into 10% neutral buffered formalin for ˜24 hours and then transferred to 70% ethanol prior to storage at 4 C. FFPE were placed in the Histokinette to infiltrate prior to embedding in blocks. Biopsy tissues were then cut at 3 μm using a microtome and sections were mounted on slides. Liver sections were stained with Hematoxylin and Eosin (H&E) to assess steatosis, inflammation, and ballooning, and PSR to assess fibrosis. Additionally, slides were processed to detect type I collagen (Col1a1), galectin-3 (Gal-3), and smooth muscle actin (α-SMA) protein expression by immunohistochemistry (IHC). For H&E staining, slides were incubated in Mayer's Hematoxylin (Dako), washed with tap water, stained in Eosin Y solution (Sigma-Aldrich), dehydrated, and coverslipped. For PSR, slides were incubated in Weigert's iron hematoxylin (Sigma-Aldrich), washed in tap water, stained in Picro-sirius red (Sigma-Aldrich), and washed twice in acidified water. Excess water was removed by shaking the slides and the slides were then dehydrated with ethanol, cleared in xylene, and cover-slipped. The NAS and fibrosis stage were scored as described previously (Kleiner et al. 2005). NAS represents the unweighted sum of steatosis, inflammation, and ballooning scores and ranges for 0-8 (Table 17); fibrosis stage ranges from 0 (no fibrosis) to 4 (cirrhosis). For detection of Col1a1, Gal-3 and α-SMA, IHC was performed by standard procedures. Briefly, after antigen retrieval and blocking of endogenous peroxidase activity, slides were incubated with primary antibody (Col1a1: Southern Biotech, Cat. 1310-01; Gal-3: Biolegend, Cat. 125402; α-SMA: Abcam Cat. Ab124964). Primary antibody was detected using a polymeric HRP-linker antibody conjugate. Primary antibody was visualized with DAB as chromogen. Finally, sections were counterstained in hematoxylin and cover-slipped.
The NAFLD Activity Score (NAS) was used to assess the histological effects of treatment. NAS is defined as the unweighted sum of steatosis, inflammation, and ballooning histological scores and can range from 0-8. NAS was determined for each animal before (baseline) and after 12-weeks of treatment at the end of study. NAS was well balanced across treatment groups with an NAS range of 5-6 at baseline in most mice (FIG. 39A). […] In addition, the magnitude of NAS improvement was greater in the combination treatment groups.

The subject of data set [3] is biopsy-confirmed DIO-NASH mice. Briefly: DIO-GAN NASH mice: liver enzymes, plasma and liver lipids, CK18 M30. Type of data set: in vivo, C57BL/6JRj mice. The following applies: for plasma triglycerides (TG): end of study.
From the text: as §1
Terminal blood was harvested by cardiac puncture from mice anesthetized with isoflurane (2-3%), mixed with anticoagulant, and placed at 4 C prior to centrifugation at 3000×g for 10 minutes. Plasma supernatants were transferred to new tubes and immediately frozen on dry ice and stored at −80 C. Alanine transaminase (ALT), Aspartate transaminase (AST), Alkaline phosphatase (ALP), Triglycerides (TGs), Total Cholesterol (TC), High-density lipoprotein (HDL-c), and Low-density lipoprotein (LDL-c) were measured using commercial kits (Roche Diagnostics) on the Cobas c 501 autoanalyzer according to manufacturer's instructions. Cytokeratin 18 M30 (CK18 M30) was measured from plasma using a commercial ELISA kit (Cusabio) according to the manufacturer's instructions.
Liver samples were homogenized and TGs and TC was extracted in 5% NP-40 by heating (2×) at 90 C. Samples were centrifuged and the TG and TC content was measured in the supernatant using commercial kits (Roche Diagnostics) on the Cobas c 501 autoanalyzer, according to the manufacturer's instructions.

Data set [4] deals with biopsy-confirmed DIO-NASH mice. Briefly: DIO-GAN NASH mice: liver transcriptomics by RNAseq. Type of data set: in vivo, C57BL/6JRj mice. The following applies: RNAseq at termination.
From the text: as §1
Tissue was collected and snap-frozen in liquid nitrogen and stored at −80 C until processing. RNA was isolated using a NucleoSpin kit ([…]-NAGEL). […]

[5] abbreviates: PO QD 12 weeks, Compound 1-low, 0.3 mg/kg.
Where [6] appears, read: PO QD 12 weeks, Compound 1-med, 2 mg/kg.
Setting [7] is: PO QD 12 weeks, Compound 1 Low, 0.3 mg/kg.
Where [8] appears, read: PO QD 12 weeks, Compound 1 Med, 2 mg/kg.
The mark [9] stands for this setting: PO QD 12 weeks, Compound 2 10 mg/kg alone or plus Compound 1 0.3/2/10 mg/kg (Combo Low/Med/High).
The mark [10] stands for this setting: PO QD 12 weeks, Compound 2 10 mg/kg alone or plus Compound 1 0.3/2/10 mg/kg (Combo-low/med/high).

Where “and” joins values, the source holds several entries; their conditions need not be identical. Identical values can stand only once.

Turning to `N#Cc1nn(-c2cc(Cl)c(Oc3n[nH]c(=O)c4ccccc34)c(Cl)c2)c(=O)[nH]c1=O` [Compound 1, 2-(3,5-dichloro-4-((4-oxo-3,4-dihydrophthalazin-1-yl)oxy)phenyl)-3,5-dioxo-2,3,4,5-tetrahydro-1,2,4-triazine-6-nitrile], the “increase of exposure (Cmax, AUC) by formulation with 5 wt % SLS” value in data set [1] is recorded as “more than 70%”. In data set [2] (setting [5]), the “NAFLD Activity Score (NAS): No change, % of mice” value was found to be 56.25%; the “NAS: Improving 1-pt, % of mice” value is recorded as 31.25%; the “NAS: Improving Total (≥1-pt), % of mice” value is 31% and 31.25%; the “NAS: Improving ≥2-pt, % of mice” value is listed as 0%. In addition, the “NAS: Worsening ≥1-pt, % of mice” value in data set [2] (setting [5]) came to 12.5%. In data set [2] (setting [6]), the “NAS: Improving 1-pt, % of mice” value turned out to be 20%; the “NAS: Improving Total (≥1-pt), % of mice” value is 27%; the “NAS: Improving ≥2-pt, % of mice” value was 7% and 6.7%; the “NAS: Worsening ≥1-pt, % of mice” value was 0%. In addition, in data set [2] (setting [7]), the “Histological Steatosis Score: No change, % of mice” value turned out to be 68.75%; the “Liver Fibrosis stage: Improving, % of mice” value turned out to be 6.25%; the “Liver Fibrosis stage: No change, % of mice” value was 62.5%; the “Lobular Inflammation: Improving, % of mice” value was 6.25%. Further, in data set [2] (setting [7]), the “Lobular Inflammation: Worsening, % of mice” value worked out at 25%; the “Steatosis Score: Improving 1-pt, % of mice” value came to 25%; the “Steatosis Score: Improving Total, % of mice” value is 31%; the “Steatosis Score: Improving ≥2-pt, % of mice” value was 6.25%. For the same compound, in data set [2] (setting [8]), the “Liver Fibrosis stage: No change, % of mice” value was 60%; the “Lobular Inflammation: Improving, % of mice” value turned out to be 6.7%; the “Lobular Inflammation: Worsening, % of mice” value was found to be 20%; the “Steatosis Score: Improving 1-pt, % of mice” value was determined as 40%. Besides, in data set [2] (setting [8]), the “Steatosis Score: Improving Total, % of mice” value was 47% and the “Steatosis Score: Improving ≥2-pt, % of mice” value was found to be 6.7%. The “α-SMA (IHC)” value in data set [2] (end of study, Compound 1-low and Compound 1-med (0.3 and 2 mg/kg)) is on record as “Numeric reductions”. The “plasma triglycerides (TG)” value in data set [3] (Compound 1-high, 10 mg/kg) is recorded as “significantly reduced”. The “ALT levels relative to DIO-GAN vehicle control” value in data set [3] (single agent Compound 1 low, med, and high (0.3, 2, 10 mg/kg)) is given as “significantly lowered”.
`Cn1cc(C(=O)O)c2ccc(C3CCC(OCc4c(-c5c(Cl)cccc5Cl)noc4C4CC4)CC3)cc21` (centres unmarked) [Compound 2]: in data set [4], the “liver expression of Col1a1, Acta2, Lgals3 and CD146 relative to DIO-GAN vehicle control” value is “significantly reduced expression”; the “liver expression of Scd1” value is “reduced”. In addition, in data set [2] (setting [9]), the “Histological Steatosis Score: No change, % of mice” value is given as 18.75%; the “Liver Fibrosis stage: Improving, % of mice” value was 6.25%; the “Liver Fibrosis stage: No change, % of mice” value is reported as 56.25%; the “Liver Fibrosis stage: Worsening, % of mice” value is 37.5%. In data set [2] (setting [9]), the “Lobular Inflammation: Improving, % of mice” value is 0%; the “Lobular Inflammation: No change, % of mice” value was determined as 68.75%; the “Lobular Inflammation: Worsening, % of mice” value worked out at 31.25%; the “Steatosis Score: Improving 1-pt, % of mice” value came to 81.25%. For the same compound, in data set [2] (setting [9]), the “Steatosis Score: Improving Total, % of mice” value was 81% and 81.25%; the “Steatosis Score: Improving ≥2-pt, % of mice” value came to 0%. In addition, in data set [2] (setting [10]), the “NAFLD Activity Score (NAS): No change, % of mice” value is recorded as 43.7%; the “NAS: Improving 1-pt, % of mice” value is 56.25%; the “NAS: Improving Total (≥1-pt), % of mice” value is 56% and 56.25%; the “NAS: Improving ≥2-pt, % of mice” value stood at 0%. In addition, the “NAS: Worsening ≥1-pt, % of mice” value in data set [2] (setting [10]) was found to be 0%. Moreover, in data set [2] (end of study, Compound 2 10 mg/kg, combinations per Table 16), the “α-SMA (IHC)” value is given as “Numeric reductions”. The “Gal-3 expression in the liver (IHC) relative to DIO-GAN vehicle control” value in data set [2] (end of study, doses per Table 16) is reported as “lower levels of Gal-3 expression”. In data set [3] (Compound 2 10 mg/kg and combinations), the “plasma triglycerides (TG)” value is “significantly reduced”.

Values taken from patent US20240293416A1, “TREATMENT OF LIVER DISORDERS WITH A THR-ß AGONIST” (Terns Pharmaceuticals, Inc., priority 2021, published 2024).
